Tested on: Japanese patients with R/R iNHL
Assay: Phase 1 dose-escalation study: safety and tolerability (TEAEs, DLTs)
Format: in vivo
Text: Japanese patients aged ≥ 20 years with R/R iNHL histologically confirmed as FL, nodal MZL, extra-nodal MZL of mucosa-associated lymphoid tissue, small lymphocytic lymphoma, lymphoplasmacytic lymphoma, Waldenström’s macroglobulinemia, or equivalent, according to World Health Organization classification, were eligible for this study. Other key eligibility criteria included being PI3K inhibitor therapy-naïve and an Eastern Cooperative Oncology Group performance status of 0 or 1. Further details of inclusion and exclusion criteria are provided in Supplementary Table 1.
This was a multicenter, open-label, dose-escalation, phase 1 study in Japan. All patients received oral zandelisib once daily at the same time each day, at least 1 h before or 2 h after a meal (CS: continuous schedule). Each treatment cycle was 28 days. Definitions of the DLTs described in this study can be found in Supplementary Table 2. The observation period for DLTs was from day 1 of Cycle 1 to day 1 of Cycle 2. Zandelisib was administered until disease progression or unacceptable toxicity. In the event of an AE, patients could be switched to IDT. In the case of disease progression while receiving IDT, patients could be switched back to CS per the investigator’s discretion.
A starting dose of 45 mg was set for investigating patient safety. This study adopted a standard 3 + 3 design. […] If DLTs occurred in 2 or more patients, the study was planned to be suspended pending a safety evaluation. If a DLT occurred in 1 patient, 3 further patients were added to cohort 1. If DLTs occurred in 0/3 or 1/6 patients in cohort 1, dosing in cohort 2 commenced (n = 6; 60 mg/day). If the incidence of DLTs in cohort 2 was ≤ 1/6, the maximum tolerated dose was not determined, and the dose in cohort 2 was to be selected as the recommended Japanese phase 2 dose.
The primary endpoint was the safety [number of patients with treatment-emergent adverse events (TEAEs), based on Common Terminology Criteria for Adverse Events version 5.0] and tolerability (including laboratory values, vital signs, and electrocardiogram performance) of zandelisib in Japanese patients. Hepatobiliary disorder, aspartate/alanine (AST/ALT) increased, diarrhea/colitis, organizing pneumonia, stomatitis, or rash were defined as irAEs in this manuscript. Secondary endpoints included PK (plasma concentrations and PK parameters) and the efficacy of zandelisib. […] The PK parameters for Cycle 1 day 1 and Cycle 2 day 1 were calculated for each patient by non-compartmental analysis. PK parameters included maximum plasma drug concentration (Cmax), area under the plasma concentration–time curve (AUC) from time zero to the last measurable point (AUC0–t), the AUC from time zero to infinity (AUC0-inf), and terminal half-life (t1/2).

CN1CCC(c2ccccc2CC(C)(C)Nc2nc(N3CCOCC3)nc(-n3c(C(F)F)nc4ccccc43)n2)CC1 [zandelisib]
TEAE Oropharyngeal pain, Grade ≥ 3 (45 mg, n = 3): 0 n (%)
TEAE Pancreatitis, All grades (45 mg, n = 3): 1 (33.3) n (%)
TEAE Pancreatitis, Grade ≥ 3 (45 mg, n = 3): 1 (33.3) n (%)
TEAE Pharyngeal paresthesia, All grades (45 mg, n = 3): 0 n (%)
TEAE Pharyngeal paresthesia, Grade ≥ 3 (45 mg, n = 3): 0 n (%)
TEAE Pruritus, All grades (45 mg, n = 3): 0 n (%)
TEAE Pruritus, Grade ≥ 3 (45 mg, n = 3): 0 n (%)
TEAE Psychiatric disorders (SOC), All grades (45 mg, n = 3): 1 (33.3) n (%)
TEAE Psychiatric disorders (SOC), Grade ≥ 3 (45 mg, n = 3): 0 n (%)
TEAE Rash maculopapular, All grades (45 mg, n = 3): 1 (33.3) n (%)
TEAE Rash maculopapular, Grade ≥ 3 (45 mg, n = 3): 0 n (%)
TEAE Rash, All grades (45 mg, n = 3): 1 (33.3) n (%)
TEAE Rash, Grade ≥ 3 (45 mg, n = 3): 0 n (%)
TEAE Renal and urinary disorders (SOC), All grades (45 mg, n = 3): 1 (33.3) n (%)
TEAE Renal and urinary disorders (SOC), Grade ≥ 3 (45 mg, n = 3): 0 n (%)
TEAE Renal impairment, All grades (45 mg, n = 3): 1 (33.3) n (%)
TEAE Renal impairment, Grade ≥ 3 (45 mg, n = 3): 0 n (%)
TEAE Respiratory, thoracic, and mediastinal disorders (SOC), All grades (45 mg, n = 3): 1 (33.3) n (%)
TEAE Respiratory, thoracic, and mediastinal disorders (SOC), Grade ≥ 3 (45 mg, n = 3): 1 (33.3) n (%)
TEAE Skin and subcutaneous tissue disorders (SOC), All grades (45 mg, n = 3): 3 (100.0) n (%)
TEAE Skin and subcutaneous tissue disorders (SOC), Grade ≥ 3 (45 mg, n = 3): 0 n (%)
TEAE Stomatitis, All grades (45 mg, n = 3): 1 (33.3) n (%)
TEAE Stomatitis, Grade ≥ 3 (45 mg, n = 3): 1 (33.3) n (%)
TEAE Subcutaneous abscess, All grades (45 mg, n = 3): 0 n (%)
TEAE Subcutaneous abscess, Grade ≥ 3 (45 mg, n = 3): 0 n (%)
TEAE Tinnitus, All grades (45 mg, n = 3): 1 (33.3) n (%)
TEAE Tinnitus, Grade ≥ 3 (45 mg, n = 3): 0 n (%)
TEAE Urticaria, All grades (45 mg, n = 3): 1 (33.3) n (%)
TEAE Urticaria, Grade ≥ 3 (45 mg, n = 3): 0 n (%)
TEAE Vomiting, All grades (45 mg, n = 3): 0 n (%)
TEAE Vomiting, Grade ≥ 3 (45 mg, n = 3): 0 n (%)
TEAE WBC count decreased, All grades (45 mg, n = 3): 2 (66.7) n (%)
TEAE WBC count decreased, Grade ≥ 3 (45 mg, n = 3): 0 n (%)
Grade 3 irAEs (60 mg): 5 patients
TEAE ALT increased, All grades (60 mg, n = 6): 1 (16.7) n (%)
TEAE ALT increased, Grade ≥ 3 (60 mg, n = 6): 0 n (%)
TEAE AST increased, All grades (60 mg, n = 6): 3 (50.0) n (%)
TEAE AST increased, Grade ≥ 3 (60 mg, n = 6): 0 n (%)
TEAE Abdominal discomfort, All grades (60 mg, n = 6): 1 (16.7) n (%)
TEAE Abdominal discomfort, Grade ≥ 3 (60 mg, n = 6): 0 n (%)
TEAE Abdominal pain upper, All grades (60 mg, n = 6): 0 n (%)
TEAE Abdominal pain upper, Grade ≥ 3 (60 mg, n = 6): 0 n (%)
TEAE Amylase increased, All grades (60 mg, n = 6): 0 n (%)
TEAE Amylase increased, Grade ≥ 3 (60 mg, n = 6): 0 n (%)
TEAE Anemia, All grades (60 mg, n = 6): 0 n (%)
TEAE Anemia, Grade ≥ 3 (60 mg, n = 6): 0 n (%)
TEAE Arthralgia, All grades (60 mg, n = 6): 1 (16.7) n (%)
TEAE Arthralgia, Grade ≥ 3 (60 mg, n = 6): 0 n (%)
TEAE Back pain, All grades (60 mg, n = 6): 0 n (%)
TEAE Back pain, Grade ≥ 3 (60 mg, n = 6): 0 n (%)
TEAE Blepharitis, All grades (60 mg, n = 6): 1 (16.7) n (%)
TEAE Blepharitis, Grade ≥ 3 (60 mg, n = 6): 0 n (%)
TEAE Blood and lymphatic system disorders (SOC), All grades (60 mg, n = 6): 0 n (%)
TEAE Blood and lymphatic system disorders (SOC), Grade ≥ 3 (60 mg, n = 6): 0 n (%)
TEAE Blood creatinine increased, All grades (60 mg, n = 6): 1 (16.7) n (%)
TEAE Blood creatinine increased, Grade ≥ 3 (60 mg, n = 6): 0 n (%)
TEAE Bradycardia, All grades (60 mg, n = 6): 0 n (%)
TEAE Bradycardia, Grade ≥ 3 (60 mg, n = 6): 0 n (%)
TEAE CMV test positive, All grades (60 mg, n = 6): 2 (33.3) n (%)
TEAE CMV test positive, Grade ≥ 3 (60 mg, n = 6): 0 n (%)
TEAE Cardiac disorders (SOC), All grades (60 mg, n = 6): 0 n (%)
TEAE Cardiac disorders (SOC), Grade ≥ 3 (60 mg, n = 6): 0 n (%)
TEAE Conjunctivitis, All grades (60 mg, n = 6): 1 (16.7) n (%)
TEAE Conjunctivitis, Grade ≥ 3 (60 mg, n = 6): 0 n (%)
TEAE Constipation, All grades (60 mg, n = 6): 2 (33.3) n (%)
TEAE Constipation, Grade ≥ 3 (60 mg, n = 6): 0 n (%)
TEAE Cough, All grades (60 mg, n = 6): 1 (16.7) n (%)
TEAE Cough, Grade ≥ 3 (60 mg, n = 6): 0 n (%)
TEAE Decreased appetite, All grades (60 mg, n = 6): 0 n (%)
TEAE Decreased appetite, Grade ≥ 3 (60 mg, n = 6): 0 n (%)
TEAE Diarrhea, All grades (60 mg, n = 6): 2 (33.3) n (%)
TEAE Diarrhea, Grade ≥ 3 (60 mg, n = 6): 2 (33.3) n (%)
TEAE Drug hypersensitivity, All grades (60 mg, n = 6): 1 (16.7) n (%)
TEAE Drug hypersensitivity, Grade ≥ 3 (60 mg, n = 6): 0 n (%)
TEAE Drug-induced liver injury, All grades (60 mg, n = 6): 1 (16.7) n (%)
TEAE Drug-induced liver injury, Grade ≥ 3 (60 mg, n = 6): 1 (16.7) n (%)
TEAE Dry eye, All grades (60 mg, n = 6): 0 n (%)
TEAE Dry eye, Grade ≥ 3 (60 mg, n = 6): 0 n (%)
TEAE Dry skin, All grades (60 mg, n = 6): 1 (16.7) n (%)
TEAE Dry skin, Grade ≥ 3 (60 mg, n = 6): 0 n (%)
TEAE Dysgeusia, All grades (60 mg, n = 6): 0 n (%)
TEAE Dysgeusia, Grade ≥ 3 (60 mg, n = 6): 0 n (%)
TEAE Dyspnea, All grades (60 mg, n = 6): 0 n (%)
TEAE Dyspnea, Grade ≥ 3 (60 mg, n = 6): 0 n (%)
TEAE Ear and labyrinth disorders (SOC), All grades (60 mg, n = 6): 0 n (%)
TEAE Ear and labyrinth disorders (SOC), Grade ≥ 3 (60 mg, n = 6): 0 n (%)
TEAE Eczema, All grades (60 mg, n = 6): 1 (16.7) n (%)
TEAE Eczema, Grade ≥ 3 (60 mg, n = 6): 0 n (%)
TEAE Eosinophil count increased, All grades (60 mg, n = 6): 0 n (%)
TEAE Eosinophil count increased, Grade ≥ 3 (60 mg, n = 6): 0 n (%)
TEAE Erythema multiforme, All grades (60 mg, n = 6): 1 (16.7) n (%)
TEAE Erythema multiforme, Grade ≥ 3 (60 mg, n = 6): 0 n (%)
TEAE Eye disorders (SOC), All grades (60 mg, n = 6): 1 (16.7) n (%)
TEAE Eye disorders (SOC), Grade ≥ 3 (60 mg, n = 6): 0 n (%)
TEAE Flank pain, All grades (60 mg, n = 6): 1 (16.7) n (%)
TEAE Flank pain, Grade ≥ 3 (60 mg, n = 6): 0 n (%)
TEAE GGT increased, All grades (60 mg, n = 6): 1 (16.7) n (%)
TEAE GGT increased, Grade ≥ 3 (60 mg, n = 6): 1 (16.7) n (%)
TEAE Gastrointestinal disorders (SOC), All grades (60 mg, n = 6): 4 (66.7) n (%)
TEAE Gastrointestinal disorders (SOC), Grade ≥ 3 (60 mg, n = 6): 2 (33.3) n (%)
TEAE General disorders and administration site conditions (SOC), All grades (60 mg, n = 6): 0 n (%)
TEAE General disorders and administration site conditions (SOC), Grade ≥ 3 (60 mg, n = 6): 0 n (%)
TEAE Hepatic function abnormal, All grades (60 mg, n = 6): 1 (16.7) n (%)
TEAE Hepatic function abnormal, Grade ≥ 3 (60 mg, n = 6): 1 (16.7) n (%)
TEAE Hepatobiliary disorders (SOC), All grades (60 mg, n = 6): 2 (33.3) n (%)
TEAE Hepatobiliary disorders (SOC), Grade ≥ 3 (60 mg, n = 6): 2 (33.3) n (%)
TEAE Herpes simplex, All grades (60 mg, n = 6): 0 n (%)
TEAE Herpes simplex, Grade ≥ 3 (60 mg, n = 6): 0 n (%)
TEAE Herpes zoster, All grades (60 mg, n = 6): 1 (16.7) n (%)
TEAE Herpes zoster, Grade ≥ 3 (60 mg, n = 6): 0 n (%)
TEAE Hypoesthesia, All grades (60 mg, n = 6): 0 n (%)
TEAE Hypoesthesia, Grade ≥ 3 (60 mg, n = 6): 0 n (%)
TEAE Hypogammaglobulinemia, All grades (60 mg, n = 6): 0 n (%)
TEAE Hypogammaglobulinemia, Grade ≥ 3 (60 mg, n = 6): 0 n (%)
TEAE Immune system disorders (SOC), All grades (60 mg, n = 6): 1 (16.7) n (%)
TEAE Immune system disorders (SOC), Grade ≥ 3 (60 mg, n = 6): 0 n (%)

Source: article PMC9668928, “Zandelisib (ME-401) in Japanese patients with relapsed or refractory indolent non-Hodgkin’s lymphoma: an open-label, multicenter, dose-escalation phase 1 study” (International Journal of Hematology, 2022)
